Results as given in US20230127944A1, “BROAD-SPECTRUM CARBAPENEMS” (priority 2019, published 2023).
Converted amounts (≈) assume the structure as drawn. Where two headings read alike, the source gives them in different places.

What was measured:
Type in all cases: cell-based
[1] = tested on: S. aureus ATCC 33591 (methicillin-resistant); assay: broth microdilution MIC assay, S. aureus 33591; conditions: Staphylococcus aureus
How it was run: (§1)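 Following CLSI methods, 2-fold compound dilutions are challenged with 5×10^5 CFU/mL bacteria in cation-supplemented Mueller-Hinton broth. After 16-20 hours at 37° C, the lowest well showing no bacterial growth is taken as the MIC.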

S. aureus USA 300 = assay: broth microdilution MIC assay, S. aureus USA300; conditions: Staphylococcus aureus
How it was run: as §1

S. aureus USA 600 = assay: broth microdilution MIC assay, S. aureus USA600; conditions: Staphylococcus aureus
How it was run: as §1

[2] = tested on: E. coli ATCC 25922 (wild-type/QC strain); assay: broth microdilution MIC assay, E. coli 25922
How it was run: as §1

[3] = tested on: P. aeruginosa ATCC 27853 (wild-type/QC strain); assay: broth microdilution MIC assay, P. aeruginosa 27853
How it was run: as §1

[4] = tested on: P. aeruginosa 35151 (hyper-permeable strain); assay: broth microdilution MIC assay, P. aeruginosa 35151; conditions: Pseudomonas aeruginosa, read-out: MIC, P. aeruginosa 35151
How it was run: as §1

[5] = tested on: P. aeruginosa ΔmexAB-OprM (an efflux pump knockout); assay: broth microdilution MIC assay, P. aeruginosa ΔmexAB-OprM; conditions: Pseudomonas aeruginosa, read-out: MIC, P. aeruginosa ΔmexAB-OprM
How it was run: as §1

P. aeruginosa Paeβ-17 = assay: broth microdilution MIC assay, P. aeruginosa Paeβ-17; conditions: Pseudomonas aeruginosa, read-out: MIC, P. aeruginosa Paeβ-17
How it was run: as §1

[6] = ATCC33591, S. aureus 33591, methicillin-resistant, read-out: MIC, S. aureus 33591
[7] = S. aureus USA300 (MRSA), read-out: MIC, S. aureus USA300
[8] = S. aureus USA600 (MRSA), read-out: MIC, S. aureus USA600
[9] = Escherichia coli, ATCC25922; read-out: MIC, E. coli 25922
[10] = Pseudomonas aeruginosa, ATCC27853; read-out: MIC, P. aeruginosa 27853

Row | SMILES | MIC [1, 6] | MIC (S. aureus USA 300; [7]) | MIC (S. aureus USA 600; [8]) | MIC [2, 9] | MIC [3, 10] | MIC [4] | MIC [5] | MIC (P. aeruginosa Paeβ-17) | MIC ([1]; ATCC33591, read-out: MIC, S. aureus 33591) | MIC (S. aureus USA 300; MRSA / USA300, read-out: MIC, S. aureus USA300) | MIC (S. aureus USA 600; MRSA / USA600, read-out: MIC, S. aureus USA600) | MIC ([2]; Escherichia coli, ATCC25922, read-out: MIC, E. coli 25922) | MIC ([3]; Pseudomonas aeruginosa, ATCC27853, read-out: MIC, P. aeruginosa 27853)
1 | C[C@@H](O)[C@H]1C(=O)N2C(C(=O)O)=C(S[C@H]3C[C@H](N[C@@H]4CC[C@@H](N)C4)C3)[C@H](C)[C@H]12 [Example 71, (4R,5S,6S)-3-(((1R,3R)-3-(((1R,3R)-3-aminocyclopentyl)amino)cyclobutyl)thio)-6-((R)-1-hydroxyethyl)-4-methyl-7-oxo-1-azabicyclo[3.2.0]hept-2-ene-2-carboxylic acid] | 8 to 32 µg/mL (≈ 20.2 to 80.9 µM) | 1 to 4 µg/mL (≈ 2.53 to 10.1 µM) | 1 to 4 µg/mL (≈ 2.53 to 10.1 µM) | < 1 µg/mL | 8 to 32 µg/mL (≈ 20.2 to 80.9 µM) | < 1 µg/mL | 1 to 4 µg/mL (≈ 2.53 to 10.1 µM) | 8 to 32 µg/mL (≈ 20.2 to 80.9 µM) | – | – | – | – | –
2 | C[C@@H](O)[C@H]1C(=O)N2C(C(=O)O)=C(S[C@@H]3CC[C@@H](NC4CCN(C(=N)N)CC4)C3)[C@H](C)[C@H]12 [Example 55, (4R,5S,6S)-3-(((1R,3R)-3-((1-carbamimidoylpiperidin-4-yl)amino)cyclopentyl)thio)-6-((R)-1-hydroxyethyl)-4-methyl-7-oxo-1-azabicyclo[3.2.0]hept-2-ene-2-carboxylic acid] | 1 to 4 µg/mL (≈ 2.21 to 8.86 µM) | 1 to 4 µg/mL (≈ 2.21 to 8.86 µM) | 1 to 4 µg/mL (≈ 2.21 to 8.86 µM) | < 1 µg/mL | 8 to 32 µg/mL (≈ 17.7 to 70.9 µM) | < 1 µg/mL | 1 to 4 µg/mL (≈ 2.21 to 8.86 µM) | 8 to 32 µg/mL (≈ 17.7 to 70.9 µM) | – | – | – | – | –
3 | C[C@@H](O)[C@H]1C(=O)N2C(C(=O)O)=C(S[C@H]3C[C@@H](N4CCC(N)CC4)C3)[C@H](C)[C@H]12 [Example 54] | – | – | – | – | – | < 1 µg/mL | 1 to 4 µg/mL (≈ 2.53 to 10.1 µM) | 8 to 32 µg/mL (≈ 20.2 to 80.9 µM) | 8 to 32 µg/mL (≈ 20.2 to 80.9 µM) | 8 to 32 µg/mL (≈ 20.2 to 80.9 µM) | 1 to 4 µg/mL (≈ 2.53 to 10.1 µM) | < 1 µg/mL | 8 to 32 µg/mL (≈ 20.2 to 80.9 µM)
4 | C[C@@H](O)[C@H]1C(=O)N2C(C(=O)O)=C(SC3CN([C@H]4CC[C@@H](N)C4)C3)[C@H](C)[C@H]12 [Example 7, (4R,5S,6S)-3-((1-((1S,3R)-3-aminocyclopentyl)azetidin-3-yl)thio)-6-((R)-1-hydroxyethyl)-4-methyl-7-oxo-1-azabicyclo[3.2.0]hept-2-ene-2-carboxylic acid] | 8 to 32 µg/mL (≈ 21 to 83.9 µM) | 1 to 4 µg/mL (≈ 2.62 to 10.5 µM) | 1 to 4 µg/mL (≈ 2.62 to 10.5 µM) | < 1 µg/mL | 8 to 32 µg/mL (≈ 21 to 83.9 µM) | < 1 µg/mL | 1 to 4 µg/mL (≈ 2.62 to 10.5 µM) | 8 to 32 µg/mL (≈ 21 to 83.9 µM) | – | – | – | – | –
5 | C[C@@H](O)[C@H]1C(=O)N2C(C(=O)O)=C(S[C@H]3C[C@@H](N[C@@H]4CC[C@H](N)C4)C3)[C@H](C)[C@H]12 [Example 77, (4R,5S,6S)-3-(((1S,3S)-3-(((1R,3S)-3-aminocyclopentyl)amino)cyclobutyl)thio)-6-((R)-1-hydroxyethyl)-4-methyl-7-oxo-1-azabicyclo[3.2.0]hept-2-ene-2-carboxylic acid] | 8 to 32 µg/mL (≈ 20.2 to 80.9 µM) | 1 to 4 µg/mL (≈ 2.53 to 10.1 µM) | 1 to 4 µg/mL (≈ 2.53 to 10.1 µM) | < 1 µg/mL | 1 to 4 µg/mL (≈ 2.53 to 10.1 µM) | < 1 µg/mL | 8 to 32 µg/mL (≈ 20.2 to 80.9 µM) | 1 to 4 µg/mL (≈ 2.53 to 10.1 µM) | – | – | – | – | –
6 | C[C@@H](O)[C@H]1C(=O)N2C(C(=O)O)=C(S[C@H]3C[C@@H](N[C@H]4CC[C@@H](NC(=N)N)CC4)C3)[C@H](C)[C@H]12 [Example 51, (4R,5S,6S)-3-(((1S,3S)-3-(((1S,4R)-4-guanidinocyclohexyl)amino)cyclobutyl)thio)-6-((R)-1-hydroxyethyl)-4-methyl-7-oxo-1-azabicyclo[3.2.0]hept-2-ene-2-carboxylic acid] | 1 to 4 µg/mL (≈ 2.21 to 8.86 µM) | < 1 µg/mL | 1 to 4 µg/mL (≈ 2.21 to 8.86 µM) | < 1 µg/mL | 1 to 4 µg/mL (≈ 2.21 to 8.86 µM) | < 1 µg/mL | 1 to 4 µg/mL (≈ 2.21 to 8.86 µM) | 8 to 32 µg/mL (≈ 17.7 to 70.9 µM) | – | – | – | – | –
7 | C[C@@H](O)[C@H]1C(=O)N2C(C(=O)O)=C(S[C@@H]3CCN([C@@H]4CC[C@@H](NC(=N)N)C4)C3)[C@H](C)[C@H]12 [Example 30, (4R,5S,6S)-3-(((R)-1-((1R,3R)-3-guanidinocyclopentyl)pyrrolidin-3-yl)thio)-6-((R)-1-hydroxyethyl)-4-methyl-7-oxo-1-azabicyclo[3.2.0]hept-2-ene-2-carboxylic acid] | 8 to 32 µg/mL (≈ 18.3 to 73.1 µM) | 1 to 4 µg/mL (≈ 2.29 to 9.14 µM) | 1 to 4 µg/mL (≈ 2.29 to 9.14 µM) | < 1 µg/mL | 8 to 32 µg/mL (≈ 18.3 to 73.1 µM) | 1 to 4 µg/mL (≈ 2.29 to 9.14 µM) | 1 to 4 µg/mL (≈ 2.29 to 9.14 µM) | > 32 µg/mL | – | – | – | – | –
8 | C[C@@H](O)[C@H]1C(=O)N2C(C(=O)O)=C(SC3CN(C4CCN(C)CC4)C3)[C@H](C)[C@H]12 [Example 42, (4R,5S,6S)-6-((R)-1-hydroxyethyl)-4-methyl-3-((1-(1-methylpiperidin-4-yl)azetidin-3-yl)thio)-7-oxo-1-azabicyclo[3.2.0]hept-2-ene-2-carboxylic acid] | 8 to 32 µg/mL (≈ 20.2 to 80.9 µM) | 1 to 4 µg/mL (≈ 2.53 to 10.1 µM) | 1 to 4 µg/mL (≈ 2.53 to 10.1 µM) | < 1 µg/mL | 8 to 32 µg/mL (≈ 20.2 to 80.9 µM) | < 1 µg/mL | 8 to 32 µg/mL (≈ 20.2 to 80.9 µM) | 8 to 32 µg/mL (≈ 20.2 to 80.9 µM) | – | – | – | – | –
9 | C[C@@H](O)[C@H]1C(=O)N2C(C(=O)O)=C(S[C@@H]3CCN([C@H]4CC[C@@H](NC(=N)N)CC4)C3)[C@H](C)[C@H]12 [Example 34, (4R,5S,6S)-3-(((R)-1-((1S,4S)-4-guanidinocyclohexyl)pyrrolidin-3-yl)thio)-6-((R)-1-hydroxyethyl)-4-methyl-7-oxo-1-azabicyclo[3.2.0]hept-2-ene-2-carboxylic acid] | 1 to 4 µg/mL (≈ 2.21 to 8.86 µM) | < 1 µg/mL | 1 to 4 µg/mL (≈ 2.21 to 8.86 µM) | < 1 µg/mL | 1 to 4 µg/mL (≈ 2.21 to 8.86 µM) | < 1 µg/mL | 1 to 4 µg/mL (≈ 2.21 to 8.86 µM) | 8 to 32 µg/mL (≈ 17.7 to 70.9 µM) | – | – | – | – | –
10 | C[C@@H](O)[C@H]1C(=O)N2C(C(=O)O)=C(S[C@H]3C[C@@H](N[C@H]4CC[C@H](NC(=N)N)CC4)C3)[C@H](C)[C@H]12 [Example 52, (4R,5S,6S)-3-(((1S,3S)-3-(((1R,4S)-4-guanidinocyclohexyl)amino)cyclobutyl)thio)-6-((R)-1-hydroxyethyl)-4-methyl-7-oxo-1-azabicyclo[3.2.0]hept-2-ene-2-carboxylic acid] | 1 to 4 µg/mL (≈ 2.21 to 8.86 µM) | 1 to 4 µg/mL (≈ 2.21 to 8.86 µM) | < 1 µg/mL | < 1 µg/mL | 1 to 4 µg/mL (≈ 2.21 to 8.86 µM) | < 1 µg/mL | 1 to 4 µg/mL (≈ 2.21 to 8.86 µM) | 8 to 32 µg/mL (≈ 17.7 to 70.9 µM) | – | – | – | – | –
11 | C[C@@H](O)[C@H]1C(=O)N2C(C(=O)O)=C(S[C@@H]3CCN(C[C@H]4CC[C@@H](NC(=N)N)CC4)C3)[C@H](C)[C@H]12 [Example 33, (4R,5S,6S)-3-(((R)-1-(((1S,4S)-4-guanidinocyclohexyl)methyl)pyrrolidin-3-yl)thio)-6-((R)-1-hydroxyethyl)-4-methyl-7-oxo-1-azabicyclo[3.2.0]hept-2-ene-2-carboxylic acid] | 1 to 4 µg/mL (≈ 2.15 to 8.59 µM) | < 1 µg/mL | 1 to 4 µg/mL (≈ 2.15 to 8.59 µM) | < 1 µg/mL | 1 to 4 µg/mL (≈ 2.15 to 8.59 µM) | < 1 µg/mL | 1 to 4 µg/mL (≈ 2.15 to 8.59 µM) | 8 to 32 µg/mL (≈ 17.2 to 68.7 µM) | – | – | – | – | –
12 | C[C@@H](O)[C@H]1C(=O)N2C(C(=O)O)=C(SC3CN(CC4CCN(C)CC4)C3)[C@H](C)[C@H]12 [Example 40, (4R,5S,6S)-6-((R)-1-hydroxyethyl)-4-methyl-3-((1-((1-methylpiperidin-4-yl)methyl)azetidin-3-yl)thio)-7-oxo-1-azabicyclo[3.2.0]hept-2-ene-2-carboxylic acid] | 8 to 32 µg/mL (≈ 19.5 to 78.1 µM) | 1 to 4 µg/mL (≈ 2.44 to 9.77 µM) | 1 to 4 µg/mL (≈ 2.44 to 9.77 µM) | < 1 µg/mL | 8 to 32 µg/mL (≈ 19.5 to 78.1 µM) | < 1 µg/mL | 1 to 4 µg/mL (≈ 2.44 to 9.77 µM) | 8 to 32 µg/mL (≈ 19.5 to 78.1 µM) | – | – | – | – | –
